{"source": "patent US11925632B2", "about": "“Isoquinoline derivatives for use in treating GLUT1 deficiency syndrome” (GLIAPHARM SA, priority 2019, dated 2024)", "key": {"primary mouse astrocytes": {"test_system": "primary mouse astrocytes", "assay": "Extracellular lactate quantification (lactate release from primary astrocytes)", "format": "cell-based", "experimental": "Primary cultures of cerebrocortical astrocytes were obtained from 1 to 2-day-old OF1 mouse pups (Charles River). Briefly, cortices were isolated and minced in small pieces under a dissecting microscope. The cells were incubated for 30 min at 37° C. in a solution containing 20 U/ml papain, 1 mM L-cysteine and 10 kU/ml DNase I. After dissociation, papain activity was stopped by the addition of fetal calf serum (FCS). Single-cell suspension was then obtained by mechanical dissociation, which consisted in cells trituration in a DMEM D7777 medium supplemented with 44 mm NaHCO3, 10 ml/L antibiotic/antimycotic solution and 10% FCS. The cells were seeded at an average density of ˜10′000 cells/cm^2 on poly-D-lysine coated 96- or 12-well culture plates, depending on their use, and grown in DMEM D7777 medium supplemented with 44 mm NaHCO3, 10 ml/L antibiotic/antimycotic solution and 10% FCS at 37° C. in a humidified atmosphere containing 5% CO2/95% air. Culture medium was renewed twice a week. Cells were stimulated and harvested between DIV14 and DIV17, when confluence and cell growth were optimal.\nSecretion of L-lactate was measured in the extracellular medium of 96-well plated astrocytes after 90 min stimulation (at 37° C., in 5% CO2/95% air conditions) with Vehicle (DMSO), the compounds of the invention (100 nM to 100 μM) or positive control. […] Stimulation medium was composed of D5030 medium complemented with 5 mM D-glucose and 44 mM sodium bicarbonate, pH 7.2. To quantify lactate concentrations in the extracellular medium, 200 μl of a 0.2M Glycine-semicarbazide buffer (pH 10) containing 3 mM NAD and 14 U/ml LDH was added to each well of a 96-well plate containing 30 μl aliquots of extracellular medium. Samples were incubated at 37° C. for 1 h. Fluorescence intensity (340 nm excitation/450 nm emission), which represents the amount of NADH produced, was measured, and lactate concentration values were determined relative to a standard curve of L-lactate concentrations.\nThe release of lactate from primary mouse astrocytes treated with compound (1) at 10 μM was quantified by (FIG. 1). Accumulation of lactate in the extracellular medium was measured over a period of 1.5 h. […] Maximal effects of the compounds were 38.6% (1), 38% (2), 31% (4) and 76% (3) when compared to the effect of the positive control (100%) for compounds (1) to (4), respectively."}, "C57Bl/6 wild-type mice": {"test_system": "C57Bl/6 wild-type mice", "assay": "Long-term memory test, inhibitory avoidance (IA)", "format": "in vivo, mouse", "experimental": "For pharmacodynamics (FIG. 5) and cognition (FIG. 7) experiments, adult male C57Bl/6J wild-type mice weighting 18-28 g (8 weeks of age) were used (Charles River). For ALS mouse models (FIG. 6), G93A SOD1 transgenic male and female mice on B6.SJL1-Gur/J background were used (Jackson Laboratory).\nAnimals were housed in groups of 3-5 in polypropylene cages (30×40×15 cm) with wire mesh top in a temperature (22±2° C.) and humidity (55±15%) controlled environment on a 12 hour light cycle (07.00-19.00 h lights on), except after surgeries when animal were housed individually. The samples (Vehicle or compounds of the invention) were administered per os (gavage) in a solution made of water supplemented with 0.4% hydroxypropyl methylcellulose (HPMC) Methocel 4KM (w/v) and 0.25% Tween-20 (v/v), as previously described (Thackaberry et al., 2010, Toxicol Sci., 117(2):485-92). Concentrations of the compounds tested ranged from 10 to 100 mg/kg.\nIA test is a well-established memory paradigm in rodents that measures contextual memory associated with a mild electrical footshock in a specific context (the dark compartment of the IA chamber). Groups of 8-week old C57Bl/6 wild-type female mice were tested. Each mouse was handled for 5 minutes per day for at least 4 consecutive days to reduce animal's stress due to experimenter's presence/manipulation during test days. Inhibitory avoidance was carried out in an IA chamber (MedAssociates) that consists in a rectangular Perspex box divided into a safe and a shock compartment separated by an automatically operated sliding door. […] Memory retention was measured at 24 h or 3 weeks after training by placing the mouse back into the lit compartment and recording its latency (in seconds) to enter the dark compartment. […]\nMemory was measured after oral administration of vehicle or compound (1) (100 mg/kg) to young adult male mice orally, and 20 min later a training for IA (FIG. 7). 24 hours and 3 weeks after training, latencies of mice to enter back into the dark compartment of the IA chamber, the place where they received the shock, were measured."}, "[1]": {"conditions": "single dose 100 mg/kg oral before training, vs vehicle"}}, "data": [{"smiles": "COc1cc2ccnc(Nc3ccc(OC(F)(F)F)cc3)c2cc1OC", "note": "[Example 1, 6,7-dimethoxy-N-(4-(trifluoromethoxy)phenyl)isoquinolin-1-amine]", "values": [{"measurement": "EC50", "setting": "primary mouse astrocytes; Astrocyte, 1.5 h, primary mouse astrocytes, 90 min stimulation, read-out: EC50 of astrocyte-mediated lactate secretion", "result": 7.02, "unit": "µM"}, {"measurement": "Emax", "setting": "primary mouse astrocytes; Mus musculus, Astrocyte, 1.5 h, positive control CCCP 2 μM, 90 min, read-out: Maximal effect on lactate secretion compared to the effect of the positive control (100%)", "result": 38.6, "unit": "%"}, {"measurement": "Concentration at which effect on lactate release is already significant", "setting": "primary mouse astrocytes; primary mouse astrocytes, 90 min", "result": "below 1 μM"}, {"measurement": "Latency to enter the dark compartment at training", "setting": "C57Bl/6 wild-type mice; 100 mg/kg oral, 20 min before training", "result": "same latencies at training"}, {"measurement": "Latency to enter the dark compartment, 3 weeks after training", "setting": "C57Bl/6 wild-type mice; [1]", "result": "significantly higher"}, {"measurement": "Latency to enter the dark compartment, 24 h after training", "setting": "C57Bl/6 wild-type mice; [1]", "result": "significantly higher"}]}]}
